Measured values as given in publication PMC11271582.
Where “and” joins values, the source holds several entries; their conditions need not be identical. Equal values may be shown once.

Columns and labels:
[1] = test system: protein synthesis (RNA translation) in Huh7/Lunet-T7 cells; experiment: ribopuromycylation assay; assay type: cell-based, human; settings: 200 µg/ml
Protocol: A protocol for the ribopuromycylation method to detect nascent protein synthesis[52] was integrated into the workflow for the determination of VPs formation. In brief, cycloheximide (CHX, 200 µg/ml) was added to cells 30 min before the start of a four-hour treatment with 35 nM JNJ-A07 (or vehicle control) to block de novo protein synthesis. Thereafter, the medium was replaced with DMEMComplete prewarmed to 37 °C, to which puromycin was added at a final concentration of 10 µg/ml. Cells were incubated at 37 °C for 5 minutes and then either fixed for microscopy or lysed for western blot analysis.

[2] = molecular target: DENV NS4B and NS3 (Dengue virus type 2, UniProt P29990); experiment: imaging-based colocalization of click-labeled PAL compounds with DENV proteins (pIRO-D); settings: 1 µM; pIRO-D WT, Huh7/Lunet-T7 cells
[3] = molecular target: ZIKV NS4B (Zika virus, UniProt A0A024B7W1); experiment: imaging-based colocalization of click-labeled PAL compound with ZIKV NS4B (pIRO-Z); settings: 1 µM, Huh7/Lunet-T7 cells
[4] = molecular target: T1, Calnexin-HA (Homo sapiens, UniProt P27824); experiment: photoaffinity labeling and click labeling on agarose beads (specificity control); assay type: binding; settings: 1 µM, UV 365 nm
T1 construct: expressed in transfected cells
T1 sequence (P27824 21-592): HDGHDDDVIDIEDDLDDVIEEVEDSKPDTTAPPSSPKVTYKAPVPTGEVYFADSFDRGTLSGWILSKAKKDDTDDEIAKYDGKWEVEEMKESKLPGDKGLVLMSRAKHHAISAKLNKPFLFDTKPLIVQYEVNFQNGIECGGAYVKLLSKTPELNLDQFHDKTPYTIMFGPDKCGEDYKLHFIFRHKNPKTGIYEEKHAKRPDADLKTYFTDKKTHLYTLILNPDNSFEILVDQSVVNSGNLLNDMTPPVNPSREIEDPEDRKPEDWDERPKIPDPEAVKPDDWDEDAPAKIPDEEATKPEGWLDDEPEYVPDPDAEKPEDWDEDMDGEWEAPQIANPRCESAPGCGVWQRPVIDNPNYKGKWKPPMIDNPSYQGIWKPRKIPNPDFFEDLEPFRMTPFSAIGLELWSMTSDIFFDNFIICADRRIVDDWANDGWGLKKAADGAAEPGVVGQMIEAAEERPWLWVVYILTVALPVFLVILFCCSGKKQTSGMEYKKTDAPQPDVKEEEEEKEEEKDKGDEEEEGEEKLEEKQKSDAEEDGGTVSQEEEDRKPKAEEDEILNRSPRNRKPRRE

[5] = test system: T2, WT (transient replicon assay, sgDVs-R2A, DENV 2/16681); experiment: microbe, parasite or virus in culture; design: species or system Huh7-derived cells (sheet title cut off after 'Hu'); transient DENV-2 replicon assay, inhibition of wild-type replicon replication; settings: wild-type replicon, replicate
T2 construct: 16681 wild-type subgenomic reporter replicon sgDVs-R2A

[6] = test system: YFV; settings: cited from earlier work
[7] = test system: DENV-2/16681; design: method as in PMID 34671169; settings: pan-serotype; cited from earlier work
[8] = test system: ZIKV; design: method as in PMID 34671169; settings: cited from earlier work
[9] = molecular target: DENV NS1-5 polyprotein (Dengue virus type 2, UniProt P29990); experiment: polyprotein processing by western blot (pIRO-D system); settings: 35 nM, regardless of the time of addition
[10] = test system: DENV vesicle packets (VPs) formation; experiment: determination of VPs formation (pIRO-D system, TEM) in Huh7/Lunet-T7 cells
[11] = test system: cells; design: method as in Kaptein et al, Nature, 2021; settings: at used concentrations; ref Kaptein et al, Nature, 2021; cited from earlier work
[12] = test system: DENV-1 or DENV-2; settings: non-human primates; cited from earlier work

Chain of DENV NS4B and NS3 (P29990 2244-2491): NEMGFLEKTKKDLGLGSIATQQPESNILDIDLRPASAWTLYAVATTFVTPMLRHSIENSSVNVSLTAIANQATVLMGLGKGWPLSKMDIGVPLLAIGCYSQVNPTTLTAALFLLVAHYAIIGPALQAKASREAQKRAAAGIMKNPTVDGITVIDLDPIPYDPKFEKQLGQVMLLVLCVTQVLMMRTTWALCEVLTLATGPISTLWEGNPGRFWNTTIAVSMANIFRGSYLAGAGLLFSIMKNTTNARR
Chain of ZIKV NS4B (A0A024B7W1 2270-2520): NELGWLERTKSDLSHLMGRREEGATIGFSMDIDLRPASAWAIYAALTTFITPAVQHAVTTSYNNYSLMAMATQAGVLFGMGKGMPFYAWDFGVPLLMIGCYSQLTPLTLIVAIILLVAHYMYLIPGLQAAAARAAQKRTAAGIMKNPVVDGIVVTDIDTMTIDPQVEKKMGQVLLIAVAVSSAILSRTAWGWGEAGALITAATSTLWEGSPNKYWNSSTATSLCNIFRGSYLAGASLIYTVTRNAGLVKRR
Chain of DENV NS1-5 polyprotein (P29990 2244-2491): as the sequence (P29990 2244-2491) above

Structure (SMILES): C[C@@H]1C[C@@H]([C@H](O)CC2CC(=O)NC(=O)C2)C(=O)[C@@H](C)C1 [CHX, cycloheximide]
- RNA translation (puromycin incorporation) [1]: completely arrested RNA translation

Structure (SMILES): C#CCCC1(CCn2cc(C(=O)C(Nc3cc(OC)cc(OCCOC)c3)c3ccc(Cl)cc3OC)c3cc(OC(F)(F)F)ccc32)N=N1 (stereo not shown) [Compound A]
- colocalization of labeled PAL compound with NS4B (and NS3), Pearson correlation [2]: high degree of colocalization
- colocalization of labeled compound with ZIKV NS4B [3]: low-level, albeit significant colocalization
- Cy5.5 labeling of HA-tagged Calnexin [4]: No labeling
- EC50 ([5]; Dengue virus, Experimental series=1): 65 nM
- EC50 ([5]; Dengue virus, Experimental series=2): 61 nM
- EC50 ([5]; Dengue virus, Experimental series=3): 52.9 nM
- EC50 ([5]; Experimental series=1, inhibitor): 58 nM and 52 nM
- EC50 ([5]; Experimental series=2, inhibitor): 48 nM and 49 nM
- EC50 ([5]; Experimental series=3, inhibitor): 68.3 nM and 64.3 nM

Structure (SMILES): C#CCCC1(CCn2cc(C(=O)C(Nc3cc(OC)cc(OCCOC)c3)c3ccc(Cl)cc3OC)c3cc(OC(F)(F)F)ccc32)N=N1 (stereo not shown) [Compound B]
- colocalization of labeled PAL compound with NS4B (and NS3), Pearson correlation [2]: significantly lower colocalization

Structure (SMILES): COc1cc(NC(C(=O)N2CCc3ccc(OC(F)(F)F)cc32)c2ccc(Cl)cc2)cc(OCCCC(=O)O)c1 (stereo not shown) [JNJ-A07]
- antiviral activity against YFV lower compared to an average value for a DENV isolate [6]: about 1000 times
- activity against DENV [7]: nano- to picomolar
- antiviral activity against ZIKV [8]: marginal antiviral activity
- effect on polyprotein processing [9]: no apparent effect on polyprotein processing
- VPE diameter ([10]; 35 nM): no effect on VPE diameter
- VPs in time-of-addition experiment ([10]; 35 nM added early, 4 h after transfection): almost complete loss of VPs
- VPE formation efficiency in time-of-addition experiment ([10]; 35 nM added late, 16 h after transfection): reduced to a much lower degree
- VPE decay with protein synthesis blocked ([10]; 35 nM with CHX 200 µg/ml, compared to CHX only): does not accelerate VPE decay
- VPE efficiency ([10]; 35 nM, NS4B resistance mutants): not affected
- cytotoxicity [11]: not cytotoxic

Structure (SMILES): COc1cc(N[C@H](C(=O)c2c[nH]c3ccc(OC(F)(F)F)cc23)c2ccc(Cl)cc2OC)cc(S(C)(=O)=O)c1 [Mosnodenvir]
- efficacy against infection with either DENV-1 or DENV-2 [12]: highly effective
